The subject of one data set is MIA-OA rats. Description: Dynamic weight bearing in MIA-OA rats. The data set is classed as in vivo, rat. As to conditions: 100 mg/kg (naproxen 30 mg/kg), 6 hours post-dose. As for the experimental part: Monosodium iodoacetate-induced osteoarthritis (MIA-OA): The animals were anaesthetized using an Isoflurane+O2 mixture. Then 50 μl of MIA at a concentration of 60 mg/mL was injected into the right knee joint using a 30 G needle. On study days 13 and 14 following MIA injection, the animals' dynamic weight bearing and response to von Frey filaments were measured.
Dynamic Weight Bearing (DWB): DWB study was performed using the DWB2 apparatus (Bioseb, Paris, France). The rats were placed in a transparent cage containing a matrix comprising around 2000 high-precision force sensors embedded in its floor where they were allowed to move freely. The force sensors measured the weight distribution on each of the four paws of the animal in grams. The animal was filmed from above using a high-definition camera, and the video feed was analyzed in real-time during the test using tracking software, allowing a precise analysis of the animal's posture and hind paws identification. Out of 5 minutes of animal behavior recording, a segment of 2 minutes was analyzed. Once the analysis was completed, the software provided the weight distribution of each hind paw as the main readout and the ratio between the injured and intact hind paws was then calculated.

A further data set concerns the target T1, cannabinoid 1 receptor (Homo sapiens, UniProt P21554).
T1 construct: Eurofins DiscoverX, USA
Description: Functional selectivity panel, cannabinoid 1 receptor. The data set is classed as biochemical. As for the experimental part: (§1) A broad panel of 78 recombinant targets was tested for pharmacologic activity in vitro through a variety of functional assays (Eurofins DiscoverX, USA), as part of the National Institute of Neurological Disorders and Stroke (NINDS) Preclinical Screening Platform for Pain (PSPP) program. The biological targets for the in vitro profiling have been selected based on avoiding opioid receptor stimulation and targets known to be associated with adverse events or targeted by drugs of abuse. […] For each test, a reference compound was evaluated at the target of interest as a positive control.

The next data set addresses T2, dopamine D2 (Homo sapiens, UniProt P14416).
T2 construct: Eurofins DiscoverX, USA
Briefly: Functional selectivity panel, dopamine D2. The data set is classed as biochemical. As for the experimental part: as §1

The next data set concerns human sensory neurons. Briefly: Human NPC-derived sensory neurons, spontaneous activity. The data set is classed as cell-based. The settings on record: 5 μM. As for the experimental part:
Cell culture and differentiation: Human PSC-derived neural progenitor cells (Stem Cell Catalog No. 70901 and 70902) were cultured and expanded on Matrigel coated 6-wells plates, using neuronal progenitor medium containing: Neurobasal media supplemented by non-essential amino-acids, 1%; Glutamax, 1%; B27, 2%, FGF2, 20 ng/mL). hNPC were then plated onto PDL and Matrigel coated 12 mm coverglass at a density of about 50,000 cells/well of a 6 well, in DMEM/F12; 10% KSR; 1% P/S and A83-01 (2 μM) from days 0-5. From days 0-9 the medium contained also CHIR99021 (6 μM). From Day 3-9 the medium included RO4929097 (2 μM) and SU5402 (3 μM). […]
Electrophysiology: To characterize the neuronal properties with electrophysiology recordings, round small neurons (20-40 μm in diameter) were selected from day 31 and onwards. Cells were monitored for their polarized negative membrane potential and for their ability to evoke consistent spikes train responses to repeated positive current injections as a mark of achieving electrical maturation before testing the effect of the tested compounds on neuronal excitability. Membrane excitability was monitored using current clamp. […]
The inhibitory potency of the newly designed compounds as described herein was evaluated based on their ability to reduce the spontaneous neuronal activity.

The subject of the next data set is rats. Description: Chronic 5-day BID exposure. The data set is classed as in vivo, rat. The settings on record: up to 300 mg/kg BID, oral.
Another data set has as its system GABAA. Description: Functional selectivity panel, GABAA. The data set is classed as biochemical. As to conditions: up to 10 micromolar. As for the experimental part:
as §1

The target of a further data set is OATP1B1 (Homo sapiens, UniProt Q9Y6L6). Description: Transporter substrate, OATP1B1. It counts as in vitro ADME. The settings on record: role: substrate. As for the experimental part: (§2) Additionally, compound 760 was tested for its capability to act as a transporter substrate for various transporters, and was not found to be a transporter substrate for any of the tested transporters.

The next data set concerns the target OATP1B3 (Homo sapiens, UniProt Q9NPD5). Briefly: Transporter substrate, OATP1B3. It counts as in vitro ADME. The settings on record: role: substrate. As for the experimental part: as §2
The next data set deals with MATE2-K. Description: Transporter substrate, MATE2-K. The settings on record: role: substrate. It counts as in vitro ADME. The method, then: as §2
A further data set has as its system rat DRG neurons. Briefly: Rat DRG neurons, current-evoked action potential firing. The data set is classed as cell-based. An excerpt: rDRGs isolation and primary cell culture: Briefly, rat DRGs from all spinal levels were carefully removed and collected in HBSS on ices, connective tissue of the epineurium surrounding the ganglion was removed and cells were dissociated using Collagenase-II and trypsin dissociation solutions. DRGs were dissociated further, passed through glass Pasteur pipettes to obtain single cells. Then dissociation solution was changed to 5% FBS containing DRG neuronal culture medium and plated onto ECL coated 12 mm cover glass.
Additional rDRGs experiments were performed using Lonza primary neonatal rat (Sprague Dawley neonatal; P2,3) DRG neurons (R-DRG-505, Lonza) plated and cultured according to the manufacturer.
Electrophysiology: Cells were used for electrophysiological recording at least 48 hours following rDRG isolation or at least 5 days following cryopreserved rDRG thawing. Round small neurons (20-40 μm in diameter) were selected for electrophysiology recordings, to select for small nociceptive neurons that propagate pain sensation in vivo and that are expressing both Kv7.2/3 and TRPV1 targets. Membrane excitability was monitored using current clamp configuration of the whole-cell patch-clamp technique. Positive current steps of different amplitude were injected (400 ms) to induce spikes trains before and following compound application.

The structures appear in SMILES notation.

OATP1B1, sequence (Q9Y6L6 whole entry): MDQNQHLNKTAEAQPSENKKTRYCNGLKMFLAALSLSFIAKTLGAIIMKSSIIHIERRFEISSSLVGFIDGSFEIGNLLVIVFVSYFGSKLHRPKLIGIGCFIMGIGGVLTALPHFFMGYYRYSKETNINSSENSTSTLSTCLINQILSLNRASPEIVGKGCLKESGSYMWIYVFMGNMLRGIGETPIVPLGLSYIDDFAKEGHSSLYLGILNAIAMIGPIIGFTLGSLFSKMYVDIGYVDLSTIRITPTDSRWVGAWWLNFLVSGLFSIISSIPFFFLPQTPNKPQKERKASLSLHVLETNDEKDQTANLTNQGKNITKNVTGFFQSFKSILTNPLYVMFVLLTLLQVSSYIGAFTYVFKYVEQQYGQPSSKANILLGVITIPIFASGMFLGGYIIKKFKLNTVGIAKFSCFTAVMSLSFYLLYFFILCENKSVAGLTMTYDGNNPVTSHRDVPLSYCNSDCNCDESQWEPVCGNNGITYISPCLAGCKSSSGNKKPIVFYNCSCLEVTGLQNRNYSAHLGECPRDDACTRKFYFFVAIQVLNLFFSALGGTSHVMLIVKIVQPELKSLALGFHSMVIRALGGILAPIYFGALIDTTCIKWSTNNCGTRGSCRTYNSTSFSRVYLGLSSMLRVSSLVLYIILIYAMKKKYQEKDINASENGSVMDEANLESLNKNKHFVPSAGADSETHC
T1 sequence (P21554 whole entry): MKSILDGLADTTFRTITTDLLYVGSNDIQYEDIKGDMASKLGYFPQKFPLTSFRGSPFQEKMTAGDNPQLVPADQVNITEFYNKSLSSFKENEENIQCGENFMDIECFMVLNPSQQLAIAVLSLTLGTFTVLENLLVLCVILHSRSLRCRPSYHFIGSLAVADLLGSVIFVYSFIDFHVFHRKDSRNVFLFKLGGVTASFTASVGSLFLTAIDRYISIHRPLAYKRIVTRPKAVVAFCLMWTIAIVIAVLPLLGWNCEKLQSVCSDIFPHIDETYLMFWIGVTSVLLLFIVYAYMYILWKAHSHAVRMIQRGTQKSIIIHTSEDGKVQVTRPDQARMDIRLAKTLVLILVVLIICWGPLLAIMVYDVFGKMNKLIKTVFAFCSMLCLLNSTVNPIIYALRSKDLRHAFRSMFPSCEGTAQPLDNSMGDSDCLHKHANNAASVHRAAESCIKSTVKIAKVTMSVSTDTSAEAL
T2 sequence (P14416 whole entry): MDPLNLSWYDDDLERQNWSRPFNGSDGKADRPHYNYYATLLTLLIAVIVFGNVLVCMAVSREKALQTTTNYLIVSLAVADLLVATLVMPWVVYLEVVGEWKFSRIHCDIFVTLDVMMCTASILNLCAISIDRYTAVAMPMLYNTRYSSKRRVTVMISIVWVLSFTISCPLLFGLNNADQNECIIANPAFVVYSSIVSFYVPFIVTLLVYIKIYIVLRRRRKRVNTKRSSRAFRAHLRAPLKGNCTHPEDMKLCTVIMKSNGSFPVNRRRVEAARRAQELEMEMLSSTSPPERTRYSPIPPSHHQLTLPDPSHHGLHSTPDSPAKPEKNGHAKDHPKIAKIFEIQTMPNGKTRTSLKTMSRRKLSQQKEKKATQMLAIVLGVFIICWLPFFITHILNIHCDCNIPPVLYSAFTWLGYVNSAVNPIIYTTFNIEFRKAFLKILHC
OATP1B3, sequence (Q9NPD5 whole entry): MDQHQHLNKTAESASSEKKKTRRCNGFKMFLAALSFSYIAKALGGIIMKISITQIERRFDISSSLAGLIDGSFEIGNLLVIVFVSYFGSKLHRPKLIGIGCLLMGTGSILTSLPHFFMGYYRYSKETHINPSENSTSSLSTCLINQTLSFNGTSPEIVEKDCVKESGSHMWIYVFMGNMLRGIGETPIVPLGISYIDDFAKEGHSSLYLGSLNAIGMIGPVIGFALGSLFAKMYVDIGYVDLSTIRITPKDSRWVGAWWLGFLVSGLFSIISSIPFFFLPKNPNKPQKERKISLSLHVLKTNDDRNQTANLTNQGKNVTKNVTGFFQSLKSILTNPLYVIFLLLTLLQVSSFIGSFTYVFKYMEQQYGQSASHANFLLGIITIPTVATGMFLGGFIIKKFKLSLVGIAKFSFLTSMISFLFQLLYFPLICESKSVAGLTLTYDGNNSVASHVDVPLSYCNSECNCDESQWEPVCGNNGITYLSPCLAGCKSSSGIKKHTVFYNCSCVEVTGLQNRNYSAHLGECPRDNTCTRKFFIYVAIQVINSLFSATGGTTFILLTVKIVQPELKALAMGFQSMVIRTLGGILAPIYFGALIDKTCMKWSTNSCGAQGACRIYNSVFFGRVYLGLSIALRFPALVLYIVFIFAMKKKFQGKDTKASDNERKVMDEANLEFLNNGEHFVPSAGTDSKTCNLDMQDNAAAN

Regarding `O=C(Cc1cncc(-n2cc(Cl)c3cc(Cl)cc(Cl)c32)c1)N[C@@H]1COC[C@H]1O` [Compound 661], the “Reversal of weight bearing changes” value in the data set with MIA-OA rats came out at 44%. The half-inhibitory concentration (IC50) (usually the point on the concentration scale where inhibition reaches its midpoint) at cannabinoid 1 receptor came to 1.4 µM; on dopamine D2, 10 µM.
With `COC[C@@H](CO)NC(=O)Cc1cc(Sc2c(Cl)cc(F)cc2C(C)C)ccc1F` [Compound 415], the “Spontaneous activity of human sensory neurons” value with human sensory neurons was “significantly reduced”.
Regarding `O=C(Cc1nccc(-n2cc(Cl)c3cc(Cl)cc(Cl)c32)n1)NC1COCC1O` (stereo not shown) [Compound 760], the “Gross safety, 5-day BID” value in the data set on rats is “did not raise any gross safety concerns”. Further, in the data set with GABAA, the “Effect on GABAA” value is listed as “no effect”. The OATP1B1 substrate result on OATP1B1 is reported as “not a transporter substrate”. Further, the OATP1B3 substrate result on OATP1B3 is on record as “not a transporter substrate”. Further, the MATE2-K substrate result in the data set with MATE2-K is given as “not a transporter substrate”.
Take `Cc1cn(-c2ccc(F)c(CC(=O)NCC(C)(C)O)c2)c2c(Cl)cc(Cl)cc12` [Compound 421-6]: the “Inhibition of current induced AP response” value is listed as 10.1±3.4% with rat DRG neurons (100 nM) and 51.2±8.4% with rat DRG neurons (500 nM). Also, the “Inhibition of AP response to current” value in the data set with rat DRG neurons (2 μM) is on record as 77.7±5.6%. For the same molecule, the half-inhibitory concentration (IC50) in the data set on rat DRG neurons (read-out: IC50 for inhibition of current induced AP responses) is roughly 0.5 µM.

(Values after patent publication US20260327211A1, “MODULATORS OF A POTASSIUM CHANNEL AND OF TRPV1 CHANNEL AND USES THEREOF” (Bsense Bio Therapeutics Ltd., priority 2023, published 2026).)
